Reference: patent US5567710A, “Polycyclic fused ring modulators of acetylcholine receptors” (SIBIA Neurosciences, Inc., priority 1994, dated 1996)
Read-outs that look alike come from different tables or passages of the source.

What was measured:
[1] = biological target: acetylcholine receptor (rat cerebral membranes); assay type: binding; conditions: 3H-QNB displacement
[2] = biological target: T1, acetylcholine receptor (rat cerebral membranes) (Rattus norvegicus, UniProt P09483+P12390); test: 3H-cyt (cytisine) displacement from rat cerebral membranes; assay type: binding; conditions: 3H-cyt displacement
T1 construct: Synaptic membranes were prepared by homogenizing the cortical tissue; from tissue; host or cells: cerebral cortex synaptic membranes of male Sprague-Dawley rats
T1 sequence (P09483 31-630): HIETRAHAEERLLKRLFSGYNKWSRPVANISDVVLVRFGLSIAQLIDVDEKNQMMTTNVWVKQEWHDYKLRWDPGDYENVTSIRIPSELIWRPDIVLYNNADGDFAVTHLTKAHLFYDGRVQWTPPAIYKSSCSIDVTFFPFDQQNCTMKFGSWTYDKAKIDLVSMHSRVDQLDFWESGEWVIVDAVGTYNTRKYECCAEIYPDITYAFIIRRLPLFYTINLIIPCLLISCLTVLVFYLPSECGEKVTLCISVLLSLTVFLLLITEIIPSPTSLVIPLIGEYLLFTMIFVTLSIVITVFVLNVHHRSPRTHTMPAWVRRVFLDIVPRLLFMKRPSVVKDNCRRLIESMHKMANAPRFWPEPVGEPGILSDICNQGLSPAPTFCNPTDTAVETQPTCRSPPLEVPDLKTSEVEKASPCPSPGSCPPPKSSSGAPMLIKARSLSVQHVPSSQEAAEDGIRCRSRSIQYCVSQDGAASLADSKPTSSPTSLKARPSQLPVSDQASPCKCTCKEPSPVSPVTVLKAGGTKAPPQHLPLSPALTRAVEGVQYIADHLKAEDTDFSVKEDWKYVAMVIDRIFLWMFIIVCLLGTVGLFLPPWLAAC
T1 sequence (P12390 25-500): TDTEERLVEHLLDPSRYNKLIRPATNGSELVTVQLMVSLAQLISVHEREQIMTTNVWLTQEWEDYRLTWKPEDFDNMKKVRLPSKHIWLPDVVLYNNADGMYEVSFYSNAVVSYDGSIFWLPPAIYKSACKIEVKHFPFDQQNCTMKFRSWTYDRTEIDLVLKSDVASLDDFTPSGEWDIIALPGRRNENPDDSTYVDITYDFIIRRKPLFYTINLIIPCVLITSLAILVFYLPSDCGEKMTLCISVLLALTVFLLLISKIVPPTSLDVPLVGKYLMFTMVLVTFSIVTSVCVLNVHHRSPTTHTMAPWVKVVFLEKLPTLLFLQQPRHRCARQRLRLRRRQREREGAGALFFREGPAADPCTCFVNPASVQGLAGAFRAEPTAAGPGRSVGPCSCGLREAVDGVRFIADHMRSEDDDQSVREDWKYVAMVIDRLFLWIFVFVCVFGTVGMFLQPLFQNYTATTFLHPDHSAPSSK

[3] = biological target: T1, acetylcholine receptor (rat cerebral membranes); test: 3H-nicotine displacement from rat cerebral membranes; assay type: binding; conditions: 3H-nicotine (1.9 nM) displacement, atropine 3 μM
[4] = biological target: T1, acetylcholine receptor (rat cerebral membranes); test: 3H-MCC (methylcarbamylcholine) displacement from rat cerebral membranes; assay type: binding; conditions: 3H-MCC displacement
rat striatal slices = assay type: cell-based
Experimental: (§1) Measurement of ^3 H-dopamine release from rat striatal slices was performed according to the method of Sacaan et al. (J. Neurochem. 59:245 (1992)). Male Sprague-Dawley rats (250-300 g) were decapitated and the striata dissected quickly on a cold glass surface. The tissue was chopped to a thickness of 300 μm with a McIlwain tissue chopper. After chopping again at right angles the tissue was dispersed and incubated for 10 min. at 37° C. in oxygenated Kreb's buffer. ^3 H-Dopamine (40 Ci/mmol, NEN-Dupont, Boston, Mass.) was added (50 nM) and the tissue was incubated for 30 min. in Kreb's buffer containing 10 μM pargyline and 0.5 mM ascorbic acid. Aliquots of the minced tissue were then transferred to chambers of a Brandel Superfusion system in which the tissue was supported on Whatman GF/B filter discs. The tissue was then superfused with buffer at a constant flow rate of 0.3 ml/min. by means of a Brandel peristaltic pump. The perfusate was collected in plastic scintillation vials in 3-min. fractions, and the radioactivity was estimated by scintillation spectrophotometry. The superfusate for the first 120 min. was discarded. After two baseline fractions had been collected, the superfusion buffer was switched to fresh buffer with or without compound of interest. At the end of the experiment the filter and the tissue were removed, and the ^3 H-dopamine content was estimated after extraction into scintillation fluid. The fractional efflux of tritium was estimated as the amount of radioactivity in the perfusate fraction relative to the total amount in the tissue.
(§2) The results of studies of the effects of an invention compound (as compared to the effect of nicotine and cytisine) on the release of neurotransmitters from rat brain slices are presented in Table II. The results presented in the Table are expressed as the percent fractional release.

rat hippocampus slices = assay type: cell-based
Experimental: as §1
(§3) Following essentially the same procedure as set forth in the preceding paragraph, the amount of ^3 H-norepinephrine released from rat hippocampus and thalamus slices superfused with buffer containing (or lacking) compounds of interest was also measured.
as §2

rat thalamus slices = assay type: cell-based
Experimental: as §1, §3, §2

[5] = system: rats with unilateral 6-hydroxydopamine lesions of the nigro-striatal dopamine pathway; assay type: in vivo, rat
Experimental: The effects of invention compounds on turning behavior of rats with unilateral 6-hydroxydopamine lesions in the striatum were evaluated using the procedure of Ungerstedt and Arbutknott Brain Res. 24:485-493 (1970). Rats were injected with desmethylimipramine (25 mg/kg i.p.) and pargyline (75 mg/kg i.p.) approximately 30 minutes prior to 6-hydroxydopamine infusion into the substantia nigra. Results reported in the Table are measured as the maximal rotation per 15-min interval toward the lesioned side of the striatum.

[6] = system: haloperidol-induced catalepsy in rats; test: Haloperidol-induced catalepsy model in rats; assay type: in vivo, rat; conditions: s.c.; for Reduction in catalepsy (maximum): haloperidol 2 mg/kg i.p., vs haloperidol alone
tail flick in rats = assay type: in vivo, rat
Experimental: The effects of invention compounds on latency in the time between stimulus application and tail flick in rats were evaluated using the procedure of D'Amour and Smith, J. Pharmacol. Exp. Ther. 72:74-79 (1941). Male rats (150-200g; Harlan, San Diego, Calif.) were acclimated to investigator's handling by taking two-to-three tail-flick latencies. The animals were held by hand such that the tail is placed in the groove of the Tail-Flick meter (IITC Life Sciences, Woodland Hill, Calif., Model 33). The light was focused 3-4 cm from the tip of the tail by a foot-operated switch. The intensity of the incident beam was adjusted to give baseline latencies in the range of 1-4 seconds. Groups of 5-6 rates were used in each treatment. The tail-flick latencies were recorded to the nearest 0.1 seconds and a cut-off time of 10 seconds was established to prevent thermal injury. The results of one such study are shown in Table V. Results presented in the Table are expressed as the percent of the maximum latency to remove the tail from the light beam. Maximum latency is 10 seconds.

COc1cc2c(cn1)C1C(CC2)CCN1C (centres unmarked)
IC50 [1]: 9 µM | IC50 [2]: 27.5 µM | IC50 [3]: 10.7 µM | IC50 [4]: 5.5 µM

c1cc2c(cn1)C1NCCC1CO2 (centres unmarked)
IC50 [2]: 2 µM | IC50 [3]: 0.51 µM | IC50 [4]: 0.61 µM

COc1cc2c(cn1)C1NCCC1CC2 (centres unmarked)
IC50 [1]: 6 µM | IC50 [2]: 5.4 µM | IC50 [3]: 1.9 µM | IC50 [4]: 0.8 µM | 3H-dopamine striatum, percent fractional release (rat striatal slices; 300 μM): 2.2% | Release of catecholamines from rat brain slices (in words) (rat striatal slices; striatum (dopamine), hippocampus and thalamus (norepinephrine)): selectively induces release of catecholamines in different brain regions | 3H-norepinephrine hippocampus, percent fractional release (rat hippocampus slices; 300 μM): 0.69% | 3H-norepinephrine thalamus, percent fractional release (rat thalamus slices; 300 μM): 2.2% | Range of activity (maximal rotation per 15-min interval toward the lesioned side of the striatum) ([5]; 10 mg/kg, s.c.): 9-50 rotation per 15-min interval | Turning towards the 6-hydroxydopamine-lesioned side (in words) ([5]; 10 mg/kg, s.c.): induces turning towards the 6-hydroxydopamine-lesioned side of the rat striatum | Cataleptogenic effect of haloperidol in rats (in words) ([6]; 3 mg/kg): reduces the cataleptogenic effect of haloperidol in rats | Reduction in catalepsy (maximum) ([6]; 3 mg/kg): 34% | Duration of effect (tail flick in rats; 30 mg/kg, p.o.): > 180 min | Latency between application of stimulus and tail-flick response (in words) (tail flick in rats; 30 mg/kg, p.o., as compared to nicotine): increased the latency period, as compared to nicotine | % maximum possible effect (tail flick in rats; 30 mg/kg, p.o., maximum latency 10 seconds): 52% | Duration of effect versus morphine (in words) (tail flick in rats; rat, in vivo): longer duration than the effect of morphine

CC(N)Cc1ccccc1 (centres unmarked) [AMPHETAMINE, reference compound]
Range of activity (maximal rotation per 15-min interval toward the lesioned side of the striatum) ([5]; 5 mg/kg, s.c.): 50-200 rotation per 15-min interval

O=c1cccc2n1C[C@@H]1CNC[C@H]2C1 [CYTISINE, cytisine]
3H-dopamine striatum, percent fractional release (rat striatal slices; 100 μM): 0.96% | 3H-norepinephrine hippocampus, percent fractional release (rat hippocampus slices; 100 μM): 4.3% | 3H-norepinephrine thalamus, percent fractional release (rat thalamus slices; 100 μM): 2.9%

CN1CC[C@]23c4c5ccc(O)c4O[C@H]2[C@@H](O)C=C[C@H]3[C@H]1C5 [Morphine, reference compound]
% maximum possible effect (tail flick in rats; 2 mg/kg, s.c., maximum latency 10 seconds): 100%

CN1CCCC1c1cccnc1 (centres unmarked) [NICOTINE, nicotine, reference compound]
3H-dopamine striatum, percent fractional release (rat striatal slices): 1.80 | 3H-norepinephrine hippocampus, percent fractional release (rat hippocampus slices): 4.1 | 3H-norepinephrine thalamus, percent fractional release (rat thalamus slices): 2.9 | Range of activity (maximal rotation per 15-min interval toward the lesioned side of the striatum) ([5]; rat, in vivo): 6-50 | Reduction in catalepsy (maximum) ([6]; 2 mg/kg): 21% | % maximum possible effect (tail flick in rats; rat, in vivo): 38% | Duration of effect (tail flick in rats; rat, in vivo): 60 min
